Experimental data from patent US7678796B2, “MGluR5 modulators I” (AstraZeneca AB, priority 2006, dated 2010).
pIC50: −log10 of the molar value.

Legend:
human mGluR5d = target: T1, human mGluR5d (Homo sapiens, UniProt P41594); test: FLIPR assay, functional assessment of mGluR5 antagonism (intracellular calcium mobilization); assay type: cell-based; conditions: cells expressing human mGluR5d; read-out: FLIPR hmGluR5d
T1 construct: expressed in transfected cells
From the text: Biological Evaluation Functional Assessment of mGluR5 Antagonism in Cell Lines Expressing mGluR5D
The properties of the compounds of the invention can be analyzed using standard assays for pharmacological activity. Examples of glutamate receptor assays are well known in the art as described in for example Aramori et al., Neuron 8:757 (1992), Tanabe et al., Neuron 8:169 (1992), Miller et al., J. Neuroscience 15: 6103 (1995), Balazs, et al., J. Neurochemistry 69:151 (1997). The methodology described in these publications is incorporated herein by reference. Conveniently, the compounds of the invention can be studied by means of an assay (FLIPR) that measures the mobilization of intracellular calcium, [Ca^2+]i in cells expressing mGluR5 or another assay (IP3) that measures inositol phosphate turnover.
Cells expressing human mGluR5d as described in WO97/05252 are seeded at a density of 100,000 cells per well on collagen coated clear bottom 96-well plates with black sides and experiments are done 24 h following seeding. All assays are done in a buffer containing 127 mM NaCl, 5 mM KCl, 2 mM MgCl2, 0.7 mM NaH2PO4, 2 mM CaCl2, 0.422 mg/mL NaHCO3, 2.4 mg/mL HEPES, 1.8 mg/mL glucose and 1 mg/mL BSA Fraction IV (pH 7.4). Cell cultures in the 96-well plates are loaded for 60 minutes in the above mentioned buffer containing 4 μM of the acetoxymethyl ester form of the fluorescent calcium indicator fluo-3 (Molecular Probes, Eugene, Oreg.) in 0.01% pluronic acid (a proprietary, non-ionic surfactant polyol—CAS Number 9003-11-6). Following the loading period the fluo-3 buffer is removed and replaced with fresh assay buffer. FLIPR experiments are done using a laser setting of 0.800 W and a 0.4 second CCD camera shutter speed with excitation and emission wavelengths of 488 nm and 562 nm, respectively. Each experiment is initiated with 160 μl of buffer present in each well of the cell plate. A 40 μl addition from the antagonist plate was followed by a 50 μL addition from the agonist plate. A 30 minute interval separates the antagonist and agonist additions. The fluorescence signal is sampled 50 times at 1 second intervals followed by 3 samples at 5 second intervals immediately after each of the two additions. Responses are measured as the difference between the peak height of the response to agonist, less the background fluorescence within the sample period. IC50 determinations are made using a linear least squares fitting program.

HERG = HERG (Homo sapiens, UniProt Q12809); test: HERG ionworks; assay type: cell-based
Chain of HERG (Q12809 whole entry): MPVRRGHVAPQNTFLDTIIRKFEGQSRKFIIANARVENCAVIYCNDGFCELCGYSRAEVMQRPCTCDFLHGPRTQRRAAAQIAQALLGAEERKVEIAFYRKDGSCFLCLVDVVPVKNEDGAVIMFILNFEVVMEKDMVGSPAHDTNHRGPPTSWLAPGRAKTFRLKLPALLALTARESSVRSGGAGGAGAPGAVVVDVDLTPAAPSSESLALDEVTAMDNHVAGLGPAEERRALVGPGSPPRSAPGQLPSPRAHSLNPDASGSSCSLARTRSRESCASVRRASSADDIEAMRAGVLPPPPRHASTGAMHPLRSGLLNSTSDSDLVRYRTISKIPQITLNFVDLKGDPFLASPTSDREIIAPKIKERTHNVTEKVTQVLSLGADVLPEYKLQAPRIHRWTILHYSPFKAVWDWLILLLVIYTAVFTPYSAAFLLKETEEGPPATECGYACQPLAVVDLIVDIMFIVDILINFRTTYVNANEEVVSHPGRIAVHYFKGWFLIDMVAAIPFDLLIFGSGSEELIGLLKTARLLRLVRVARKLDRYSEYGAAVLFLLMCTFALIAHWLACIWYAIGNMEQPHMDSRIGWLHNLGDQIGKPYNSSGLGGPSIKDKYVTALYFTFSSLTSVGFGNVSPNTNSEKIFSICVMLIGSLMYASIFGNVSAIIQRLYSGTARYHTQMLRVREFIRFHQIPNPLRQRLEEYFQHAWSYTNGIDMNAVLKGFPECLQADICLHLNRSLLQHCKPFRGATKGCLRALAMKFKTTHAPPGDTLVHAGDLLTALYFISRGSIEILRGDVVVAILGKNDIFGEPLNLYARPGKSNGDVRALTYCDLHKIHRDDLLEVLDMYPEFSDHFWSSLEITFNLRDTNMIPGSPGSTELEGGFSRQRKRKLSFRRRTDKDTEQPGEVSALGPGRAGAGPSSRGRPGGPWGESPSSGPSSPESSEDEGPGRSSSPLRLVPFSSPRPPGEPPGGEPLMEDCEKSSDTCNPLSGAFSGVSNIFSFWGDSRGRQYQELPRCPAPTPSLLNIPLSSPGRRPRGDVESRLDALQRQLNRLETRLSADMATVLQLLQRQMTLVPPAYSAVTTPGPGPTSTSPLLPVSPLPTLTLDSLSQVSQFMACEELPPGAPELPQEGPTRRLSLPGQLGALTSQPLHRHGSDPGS

[1] = Determination of brain to plasma ratio in rat; assay type: in vivo; conditions: female Sprague Dawley rats, read-out: Brain/Plasma Ratio of compound in Rat
Experimental: Brain to plasma ratios are estimated in female Sprague Dawley rats. The compound is dissolved in water or another appropriate vehicle. For determination of brain to plasma ratio the compound is administrated as a subcutaneous, or an intravenous bolus injection, or an intravenous infusion, or an oral administration. At a predetermined time point after the administration a blood sample is taken with cardiac puncture. The rat is terminated by cutting the heart open, and the brain is immediately retained. The blood samples are collected in heparinized tubes and centrifuged within 30 minutes, in order to separate the plasma from the blood cells. The plasma is transferred to 96-well plates and stored at −20° C. until analysis. The brains are divided in half, and each half is placed in a pre-tarred tube and stored at −20° C. until analysis. Prior to the analysis, the brain samples are thawed and 3 mL/g brain tissue of distilled water is added to the tubes. The brain samples are sonicated in an ice bath until the samples are homogenized. Both brain and plasma samples are precipitated with acetonitrile. After centrifugation, the supernatant is diluted with 0.2% formic acid. Analysis is performed on a short reversed-phase HPLC column with rapid gradient elution and MSMS detection using a triple quadrupole instrument with electrospray ionisation and Selected Reaction Monitoring (SRM) acquisition. Liquid-liquid extraction may be used as an alternative sample clean-up. The samples are extracted, by shaking, to an organic solvent after addition of a suitable buffer. An aliquot of the organic layer is transferred to a new vial and evaporated to dryness under a stream of nitrogen. After reconstitution of the residuals the samples are ready for injection onto the HPLC column.

[2] = Determination of in vitro stability in human liver microsomes (CLint); assay type: in vitro ADME; conditions: pH 7.4, 0.5 mg/mL protein, 1.0 μmol/L compound, NADPH
Experimental: Rat liver microsomes are prepared from Sprague-Dawley rats liver samples. Human liver microsomes are either prepared from human liver samples or acquired from BD Gentest. The compounds are incubated at 37° C. at a total microsome protein concentration of 0.5 mg/mL in a 0.1 mol/L potassium phosphate buffer at pH 7.4, in the presence of the cofactor, NADPH (1.0 mmol/L). The initial concentration of compound is 1.0 μmol/L. Samples are taken for analysis at 5 time points, 0, 7, 15, 20 and 30 minutes after the start of the incubation. The enzymatic activity in the collected sample is immediately stopped by adding a 3.5 times volume of acetonitrile. The concentration of compound remaining in each of the collected samples is determined by means of LC-MS. The elimination rate constant (k) of the mGluR5 inhibitor is calculated as the slope of the plot of In[mGluR5 inhibitor] against incubation time (minutes). The elimination rate constant is then used to calculate the half-life (T ½) of the mGluR5 inhibitor, which is subsequently used to calculate the intrinsic clearance (CLint) of the mGluR5 inhibitor in liver microsomes as: CLint.=(ln 2×incubation volume)/(T ½×protein concentration)=μl/min/mg

T1 sequence (P41594 21-942 isoform P41594-3 limits assumed): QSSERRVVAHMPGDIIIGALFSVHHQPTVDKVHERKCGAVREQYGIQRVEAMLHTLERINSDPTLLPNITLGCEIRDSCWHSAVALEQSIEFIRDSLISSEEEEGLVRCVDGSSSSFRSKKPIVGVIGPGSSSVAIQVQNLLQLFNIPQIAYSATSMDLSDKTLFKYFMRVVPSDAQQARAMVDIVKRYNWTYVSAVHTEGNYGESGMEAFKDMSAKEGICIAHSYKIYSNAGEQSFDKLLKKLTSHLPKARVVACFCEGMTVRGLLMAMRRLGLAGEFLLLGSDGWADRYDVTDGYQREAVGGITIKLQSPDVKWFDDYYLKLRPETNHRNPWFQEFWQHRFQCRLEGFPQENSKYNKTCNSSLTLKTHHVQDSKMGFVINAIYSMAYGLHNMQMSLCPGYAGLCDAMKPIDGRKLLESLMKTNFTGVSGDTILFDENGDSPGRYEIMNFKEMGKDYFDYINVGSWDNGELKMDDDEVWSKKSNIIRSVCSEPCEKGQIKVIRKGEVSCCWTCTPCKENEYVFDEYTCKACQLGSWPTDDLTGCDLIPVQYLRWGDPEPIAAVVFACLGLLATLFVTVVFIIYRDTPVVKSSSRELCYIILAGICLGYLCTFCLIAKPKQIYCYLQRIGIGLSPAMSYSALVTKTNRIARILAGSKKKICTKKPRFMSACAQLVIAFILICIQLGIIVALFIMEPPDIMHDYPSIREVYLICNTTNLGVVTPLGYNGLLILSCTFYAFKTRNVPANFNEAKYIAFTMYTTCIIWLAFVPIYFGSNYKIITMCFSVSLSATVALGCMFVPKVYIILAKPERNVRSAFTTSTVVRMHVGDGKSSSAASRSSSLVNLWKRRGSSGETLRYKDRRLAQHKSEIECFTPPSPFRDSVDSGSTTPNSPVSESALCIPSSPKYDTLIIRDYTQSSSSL

SMILES	pIC50 (human mGluR5d)	HERG ionworks (HERG) [µM]	Kp [1]	microsomal CLint at 1 μmol/L [2] [µL/min/mg]
Cn1c(-c2ccn(C)c(=O)c2)nnc1N1CCC[C@@H]1c1nnn(-c2cccc(Cl)c2)n1 [Example 31.11, 4-(5-{(R)-2-[2-(3-Chloro-phenyl)-2H-tetrazol-5-yl]-pyrrolidin-1-yl}-4-methyl-4H-[1,2,4]triazol-3-yl)-1-methyl-1H-pyridin-2-one]	7.41	20	0.035	< 12
Cn1c(-c2ccc(=O)n(C)c2)nnc1N1CCC[C@@H]1c1cc(-c2cccc(Cl)c2)on1 [Example 31.7, 5-(5-{(R)-2-[5-(3-Chloro-phenyl)-isoxazol-3-yl]-pyrrolidin-1-yl}-4-methyl-4H-[1,2,4]triazol-3-yl)-1-methyl-1H-pyridin-2-one]	7.33	23	0.005	< 12
Cn1c(-c2ccnnc2)nnc1N1CCC[C@@H]1c1cc(-c2cccc(Cl)c2)on1 [Example 31.8, 4-(5-{(R)-2-[5-(3-Chloro-phenyl)-isoxazol-3-yl]-pyrrolidin-1-yl}-4-methyl-4H-[1,2,4]triazol-3-yl)-pyridazine]	7.60	16	0.11	< 12
Cc1cccc(-c2cc([C@H]3CCCN3c3nnc(-c4ccn(C)c(=O)c4)n3C)no2)c1 [Example 31.19, 1-Methyl-4-{4-methyl-5-[(R)-2-(5-m-tolylisoxazol-3-yl)pyrrolidin-1-yl]-4H-[1,2,4]triazol-3-yl}-1H-pyridin-2-one]	7.30	24	0.01	< 12
